For one experiment, the system named is IL-1β production in PMA-differentiated THP-1 cells. Put plainly: IL-1β production in PMA-differentiated THP-1 cells stimulated with gramicidin (hTHP-1 assay containing 2% fetal bovine serum; Procedures 1-3). It is filed as cell-based, human. The note with it: Homo sapiens, THP-1, hTHP-1 assay containing 2% fetal bovine serum; class symbols; read-out: hTHP-1 IC50 (Average IC50 of compounds in hTHP-1 assay). The protocol: The following protocol is suitable for testing the activity of the compounds disclosed herein.
Procedure 1: IL-1β Production in PMA-Differentiated THP-1 Cells Stimulated with Gramicidin
THP-1 cells were purchased from the American Type Culture Collection and sub-cultured according to instructions from the supplier. Cells were cultured in complete RPMI 1640 (containing 10% heat inactivated FBS, penicillin (100 units/ml) and streptomycin (100 μg/ml)), and maintained in log phase prior to experimental setup. Prior to the experiment, compounds were dissolved in dimethyl sulfoxide (DMSO) to generate a 30 mM stock. The compound stock was first pre-diluted in DMSO to 3, 0.34, 0.042 and 0.0083 mM intermediate concentrations and subsequently spotted using Echo550 liquid handler into an empty 384-well assay plate to achieve desired final concentration (e.g. 100, 33, 11, 3.7, 1.2, 0.41, 0.14, 0.046, 0.015, 0.0051, 0.0017 μM). DMSO was backfilled in the plate to achieve a final DMSO assay concentration of 0.37%. The plate was then sealed and stored at room temperature until required.
THP-1 cells were treated with PMA (Phorbol 12-myristate 13-acetate) (20 ng/ml) for 16-18 hours. On the day of the experiment the media was removed and adherent cells were detached with trypsin for 5 minutes. Cells were then harvested, washed with complete RPMI 1640, spun down, and resuspended in RPMI 1640 (containing 2% heat inactivated FBS, penicillin (100 units/ml) and streptomycin (100 μg/ml). The cells were plated in the 384-well assay plate containing the spotted compounds at a density of 50,000 cells/well (final assay volume 50 μl). Cells were incubated with compounds for 1 hour and then stimulated with gramicidin (5 μM) (Enzo) for 2 hours. Plates were then centrifuged at 340 g for 5 min. Cell free supernatant (40 μL) was collected using a 96-channel PlateMaster (Gilson) and the production of IL-1β was evaluated by HTRF (cisbio). The plates were incubated for 18 h at 4° C. and read using the preset HTRF program (donor emission at 620 nm, acceptor emission at 668 nm) of the SpectraMax i3x spectrophotometer (Molecular Devices, software SoftMax 6). A vehicle only control and a dose titration of CRID3 (100-0.0017 μM) were run concurrently with each experiment.
Procedure 2: IL-1β Production in PMA-Differentiated THP-1 Cells Stimulated with Gramicidin
THP-1 cells were purchased from the American Type Culture Collection and sub-cultured according to instructions from the supplier. Prior to experiments, cells were cultured in complete RPMI 1640 (containing 10% heat inactivated FBS, penicillin (100 units/ml) and streptomycin (100 μg/ml)), and maintained in log phase prior to experimental setup. Prior to the experiment THP-1 were treated with PMA (Phorbol 12-myristate 13-acetate) (20 ng/ml) for 16-18 hours. Compounds were dissolved in dimethyl sulfoxide (DMSO) to generate a 30 mM stock. On the day of the experiment the media was removed and adherent cells were detached with trypsin for 5 minutes. Cells were then harvested, washed with complete RPMI 1640, spun down, resuspended in RPMI 1640 (containing 2% heat inactivated FBS, penicillin (100 units/ml) and streptomycin (100 μg/ml). The cells were plated in a 384-well plate at a density of 50,000 cells/well (final assay volume 50 μl). Compounds were first dissolved in assay medium to obtain a 5× top concentration of 500 μM. 10 step dilutions (1:3) were then undertaken in assay medium containing 1.67% DMSO. 5× compound solutions were added to the culture medium to achieve desired final concentration (e.g. 100, 33, 11, 3.7, 1.2, 0.41, 0.14, 0.046, 0.015, 0.0051, 0.0017 μM). Final DMSO concentration was at 0.37%. Cells were incubated with compounds for 1 hour and then stimulated with gramicidin (5 μM) (Enzo) for 2 hours. Plates were then centrifuged at 340 g for 5 min. Cell free supernatant (40 μL) was collected using a 96-channel PlateMaster (Gilson) and the production of IL-1β was evaluated by HTRF (cisbio). […]
On to `CC(C)c1ccc(F)c(C(C)C)c1CC(=O)N=S(N)(=O)c1ccc2c(cnn2C)c1` (single isomer, unassigned) [Example 198, (R) or (S)-N-(amino(1-methyl-1H-indazol-5-yl)(oxo)-λ^6-sulfaneylidene)-2-(3-fluoro-2,6-diisopropylphenyl)acetamide], for which the IC50 lay within 5 to 30 µM.
On the same count and under the same terms, as for `CC(C)c1ccc(F)c(C(C)C)c1CC(=O)N=S(N)(=O)c1ccc(CN(C)C)cn1` (single isomer, unassigned) [Example 200, (R) or (S)-N-(amino(5-((dimethylamino)methyl)pyridin-2-yl)(oxo)-λ^6-sulfaneylidene)-2-(3-fluoro-2,6-diisopropylphenyl)acetamide], the figure is 1 to 5 µM; as for `CC(C)c1ncc(F)c(C(C)C)c1CC(=O)N=S(N)(=O)c1ncc(C(C)(C)O)s1` (single isomer, unassigned) [Example 204, N-(amino(5-(2-hydroxypropan-2-yl)thiazol-2-yl)(oxo)-λ^6-sulfaneylidene)-2-(5-fluoro-2,4-diisopropylpyridin-3-yl)acetamide], 1 to 5 µM.
Same read-out and setting: as for `CC(C)c1ncc(F)c(C(C)C)c1CC(=O)N=S(N)(=O)c1nc(C(C)(C)O)cs1` (single isomer, unassigned) [Example 206, N-(amino(4-(2-hydroxypropan-2-yl)thiazol-2-yl)(oxo)-λ^6-sulfaneylidene)-2-(5-fluoro-2,4-diisopropylpyridin-3-yl)acetamide], the figure is 0.2 to 1 µM; as for `CC(C)c1cc2c(c(C(C)C)c1CC(=O)N=S(N)(=O)c1cnc(C(C)(C)O)s1)CCC2` (single isomer, unassigned) [Example 213, (S) or (R)-N-(amino(2-(2-hydroxypropan-2-yl)thiazol-5-yl)(oxo)-λ^6-sulfaneylidene)-2-(4,6-diisopropyl-2,3-dihydro-1H-inden-5-yl)acetamide], 1 to 5 µM.
Still for that read-out and setting: to `CC(C)c1cc2c(c(C(C)C)c1CC(=O)N=S(N)(=O)c1ccn(C(C)C)n1)COC2` (single isomer, unassigned) [Example 218, (R) or (S)-N-(amino(1-isopropyl-1H-pyrazol-3-yl)(oxo)-λ^6-sulfaneylidene)-2-(4,6-diisopropyl-1,3-dihydroisobenzofuran-5-yl)acetamide] belongs 5 to 30 µM; to `CC(C)(O)c1ncc([S@@](N)(=O)=NC(=O)Cc2cc3c(c4c2CCC4)CCC3)s1` [Compound 259a], 5 to 30 µM; to `CC(C)(O)c1ncc([S@](N)(=O)=NC(=O)Cn2c3ccccc3c3ccccc32)s1` [Compound 262b], 5 to 30 µM.
Consider `CC(C)(O)c1cnc(S(N)(=O)=NC(=O)Cc2c3c(cc4c2CCC4)CCC3)s1` (stereo not shown) [Example 4, 2-(1,2,3,5,6,7-Hexahydro-s-indacen-4-yl)-N-(5-(2-hydroxypropan-2-yl)thiazol-2-ylsulfonimidoyl)acetamide], for which the IC50 was in the range of 5 to 30 µM.

Still in this experiment, the particulars now being: Homo sapiens, THP-1, hTHP-1 assay containing 2% fetal bovine serum; given as numeric bound; read-out: hTHP-1 IC50 (Average IC50 of compounds in hTHP-1 assay).
Consider `CC(C)(O)c1ncc(S(N)(=O)=NC(=O)Cc2c(C3CC3)cc(F)cc2C(F)(F)F)s1` (single isomer, unassigned) [Example 197, (S) or (R)-N-(amino(2-(2-hydroxypropan-2-yl)thiazol-5-yl)(oxo)-λ^6-sulfaneylidene)-2-(2-cyclopropyl-4-fluoro-6-(trifluoromethyl)phenyl) acetamide], for which the IC50 is over 30 µM.
Same read-out and setting: as for `CC(C)c1ccc(F)c(C(C)C)c1CC(=O)N=S(N)(=O)c1ccc2c(cnn2C)c1` (single isomer, unassigned) [Example 199, (S) or (R)-N-(amino(1-methyl-1H-indazol-5-yl)(oxo)-λ^6-sulfaneylidene)-2-(3-fluoro-2,6-diisopropylphenyl)acetamide], the figure is over 30 µM; as for `CC(C)c1ccc(F)c(C(C)C)c1CC(=O)N=S(N)(=O)c1ccc(CN(C)C)cn1` (single isomer, unassigned) [Example 201, (S) or (R)-N-(amino(5-((dimethylamino)methyl)pyridin-2-yl)(oxo)-λ^6-sulfaneylidene)-2-(3-fluoro-2,6-diisopropylphenyl)acetamide], over 30 µM.
The same measure, in the same setting: as for `CC(C)c1ncc(F)c(C(C)C)c1CC(=O)N=S(N)(=O)c1ncc(C(C)(C)O)s1` (single isomer, unassigned) [Example 205, (S) or (R)-N-(amino(5-(2-hydroxypropan-2-yl)thiazol-2-yl)(oxo)-λ^6-sulfaneylidene)-2-(5-fluoro-2,4-diisopropylpyridin-3-yl)acetamide], the figure is over 30 µM.
Still for that read-out and setting: as for `CC(C)c1ncc(F)c(C(C)C)c1CC(=O)N=S(N)(=O)c1nc(C(C)(C)O)cs1` (single isomer, unassigned) [Example 207, (S) or (R)-N-(amino(4-(2-hydroxypropan-2-yl)thiazol-2-yl)(oxo)-λ^6-sulfaneylidene)-2-(5-fluoro-2,4-diisopropylpyridin-3-yl)acetamide], the figure is over 30 µM; as for `CC(C)c1cc2c(c(C(C)C)c1CC(=O)N=S(N)(=O)c1cnc(C(C)(C)O)s1)CCC2` (single isomer, unassigned) [Example 212, (R) or (S)-N-(amino(2-(2-hydroxypropan-2-yl)thiazol-5-yl)(oxo)-λ^6-sulfaneylidene)-2-(4,6-diisopropyl-2,3-dihydro-1H-inden-5-yl)acetamide], over 30 µM.
Consider `CC(C)c1cc2c(c(C(C)C)c1CC(=O)N=S(N)(=O)c1ccn(C(C)C)n1)COC2` (single isomer, unassigned) [Example 219, (S) or (R)-N-(amino(1-isopropyl-1H-pyrazol-3-yl)(oxo)-λ^6-sulfaneylidene)-2-(4,6-diisopropyl-1,3-dihydroisobenzofuran-5-yl)acetamide], for which the IC50 was over 30 µM.
For `CC(C)(O)c1ncc(S(N)(=O)=NC(=O)Cc2cc3c(c4c2CCC4)CCC3)s1` (stereo not shown) [Compound 259], the IC50 is over 17 µM.
Still for that read-out and setting: to `CC(C)(O)c1ncc([S@](N)(=O)=NC(=O)Cc2cc3c(c4c2CCC4)CCC3)s1` [Compound 259b] belongs over 30 µM; to `CC(C)(O)c1ncc([S@@](N)(=O)=NC(=O)Cn2c3ccccc3c3ccccc32)s1` [Compound 262a], over 30 µM.

The experiment is the same for the next values; noted with them: hTHP-1 assay containing 2% fetal bovine serum; class symbols; read-out: hTHP-1 IC50 (Average IC50 of compounds in hTHP-1 assay).
As for `CC(C)c1nc(-c2cccc(C(F)(F)F)c2)c(F)c(C(C)C)c1CC(=O)N=S(N)(=O)c1cnc(C(C)(C)O)s1` (single isomer, unassigned) [Example 202, N-(amino(2-(2-hydroxypropan-2-yl)thiazol-5-yl)(oxo)-λ^6-sulfaneylidene)-2-(5-fluoro-2,4-diisopropyl-6-(3-(trifluoromethyl)phenyl)pyridin-3-yl)acetamide], the IC50 is 0.2 to 1 µM.
On the same count and under the same terms, as for `CC(C)c1ncc(F)c(C(C)C)c1CC(=O)N=S(N)(=O)c1sc(C(C)(C)O)cc1F` (single isomer, unassigned) [Example 211, N-(amino(3-fluoro-5-(2-hydroxypropan-2-yl)thiophen-2-yl)(oxo)-λ^6-sulfaneylidene)-2-(5-fluoro-2,4-diisopropylpyridin-3-yl)acetamide], the figure is 0.2 to 1 µM; as for `CC(C)c1cc(F)cc(C(C)C)c1CC(=O)N=S(N)(=O)c1ccc(C(C)(C)O)cc1` (stereo not shown) [Compound 131], 5 to 30 µM.

By IC50 is commonly meant the concentration at which inhibition is half-maximal.

Source of the values: US11370763B2, “Compounds and compositions for treating conditions associated with NLRP activity” (Novartis AG, priority 2017, dated 2022).
